The values that follow come from PMC4916434, “Evaluation of the inhibition potential of plumbagin against cytochrome P450 using LC-MS/MS and cocktail approach” (Scientific Reports, 2016).

In one series the target is T1, CYP2B1 (Rattus norvegicus, UniProt P00176).
T1 construct: consisting of pooled HLMs (0.5 mg/ml) or RLMs (1 mg/ml) and an NADPH-regenerating system; from tissue; host or cells: rat liver microsomes prepared in house
T1 sequence (P00176 1-491): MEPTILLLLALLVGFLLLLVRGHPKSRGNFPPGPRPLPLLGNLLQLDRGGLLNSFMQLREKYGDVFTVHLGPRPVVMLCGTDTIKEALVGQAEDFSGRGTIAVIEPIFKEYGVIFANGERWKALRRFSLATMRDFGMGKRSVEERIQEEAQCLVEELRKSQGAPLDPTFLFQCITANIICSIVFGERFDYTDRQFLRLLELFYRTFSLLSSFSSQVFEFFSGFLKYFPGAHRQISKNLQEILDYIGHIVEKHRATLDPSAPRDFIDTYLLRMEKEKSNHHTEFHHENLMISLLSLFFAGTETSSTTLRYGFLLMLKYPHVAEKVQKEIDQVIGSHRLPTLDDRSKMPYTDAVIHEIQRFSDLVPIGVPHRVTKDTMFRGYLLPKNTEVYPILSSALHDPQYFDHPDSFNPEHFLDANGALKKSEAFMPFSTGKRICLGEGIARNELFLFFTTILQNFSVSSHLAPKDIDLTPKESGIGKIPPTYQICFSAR
It counts as in vitro ADME. On the procedure:
(§1) In this study, the rats were fasted overnight and killed by cervical dislocation before removal of the liver. The liver was excised, rinsed with ice-cold saline (0.9% NaCl w/v), weighed and homogenized in a […] Tris/KCl buffer (pH 7.4). Subsequently, the homogenate was centrifuged at 10,000 × g at 4 °C for 30 min. The supernatant was then centrifuged at 105,000 × g at 4 °C for 60 min. The pellet was reconstituted with […] Tris/KCl buffer (pH 7.4) and stored at −150 °C until use. The protein concentration of the liver microsomes was determined by a protein quantitative assay using bicinchoninic acid[22].
(§2) Microsomal incubation was carried out at 37 °C in a mixture of 200 μl in 0.05 M Tris/HCl buffer (pH 7.4) consisting of pooled HLMs (0.5 mg/ml) or RLMs (1 mg/ml) and an NADPH-regenerating system including MgCl2 (5 mM), G6P (10 mM), G6PDH (0.4 U/ml) and NADP (1 mM). Substrates were added into the incubation mixture and obtained the final concentrations (10 μM phenacetin for CYP1A2, 20 μM bupropion for CYP2B1/6, 20 μM tolbutamide for CYP2C9/11, 5 μM dextromethorphan for CYP2D1/6, 20 μM chlorzoxazone for CYP2E1 and 10 μM midazolam for CYP3A2/4), which were close to Km respectively. The proportion of organic solvent was not higher than 1% (v/v) in the incubation mixture. After pre-incubation for 5 min, the reaction was initiated by addition of NADP. Incubations were performed for 20 min, stopped by adding 200 μl ice-cold acetonitrile. And then 20 μl internal standard solution was added (3-acetamidophenol 2 μg/ml, chlorpropamide 2 μg/ml and mebendazole 2 μg/ml). The solution was mixed thoroughly for 3 min and centrifuged for 10 min at 16,000 × g at 4 °C. The supernatant (60 μl) was transferred to autosampler vials, and 2 μl was injected into LC-MS/MS system.
(§3) The IC50 (concentration of inhibitor to cause 50% inhibition of original enzyme activity) values were determined with the same incubation condition above. The specific concentrations of plumbagin were ranged from 0.1 μM to 50 μM. The IC50 values were calculated by plotting relative activities over the logarithm of plumbagin concentrations using GraphPad Prism 5.0 (GraphPad software Inc., CA, USA).
(§4) Cocktail probe substrates were then added and incubated for 20 min. Reactions were stopped with 200 μl ice-cold acetonitrile. The samples were treated according to the microsomal incubation method and then injected into LC-MS/MS for analysis.
(§5) Kinetic studies were performed for determining the types of inhibition on CYP by plumbagin. Pooled HLMs (0.5 mg/ml) or RLMs (1 mg/ml) with plumbagin (1 μM, 2 μM, 5 μM and 10 μM) were incubated in 0.05 M Tris/HCl buffer (pH 7.4) for 20 min at 37 °C. A series of concentrations for cocktail probe substrates were used: 2.5–20 μM phenacetin for CYP1A2; 5–40 μM bupropion for CYP2B1/6; 5–40 μM tolbutamide for CYP2C9/11; 1.25–10 μM dextromethorphan for CYP2D1/6; 5–40 μM chlorzoxazone for CYP2E1; 2.5–80 μM midazolam for CYP3A2; and 0.625–5 μM midazolam for CYP3A4. Enzyme kinetics as well as statistical analysis were performed using GraphPad Prism 5.0.
(§6) All data were presented as mean ± SD. The IC50 values were fitted by non-linear regression analysis using GraphPad Prism 5.0. The kinetic parameters were obtained by fitting velocity data to kinetic models (Michaelis-Menten) using GraphPad Prism 5.0. The Lineweaver-Burk Plot (the reciprocal of reaction velocities versus the reciprocal of substrates concentrations) was used to determine the quality of fit to a specific inhibition model. The inhibition constant (Ki) was obtained by a secondary plot using the slopes of the primary Lineweaver-Burk Plot (Km/Vmax versus inhibitor concentrations). αKi was obtained from a secondary plot using the y-intercepts of the Lineweaver-Burk plot (1/Vmax versus inhibitor concentrations). All results were analyzed in quadruplicate. One-way analysis of variance was used to estimate the significance of differences. […]

Another series has as its target T2, CYP2D1 (Rattus norvegicus, UniProt P10633).
T2 construct: consisting of pooled HLMs (0.5 mg/ml) or RLMs (1 mg/ml) and an NADPH-regenerating system; from tissue; host or cells: rat liver microsomes prepared in house
T2 sequence (P10633 1-504): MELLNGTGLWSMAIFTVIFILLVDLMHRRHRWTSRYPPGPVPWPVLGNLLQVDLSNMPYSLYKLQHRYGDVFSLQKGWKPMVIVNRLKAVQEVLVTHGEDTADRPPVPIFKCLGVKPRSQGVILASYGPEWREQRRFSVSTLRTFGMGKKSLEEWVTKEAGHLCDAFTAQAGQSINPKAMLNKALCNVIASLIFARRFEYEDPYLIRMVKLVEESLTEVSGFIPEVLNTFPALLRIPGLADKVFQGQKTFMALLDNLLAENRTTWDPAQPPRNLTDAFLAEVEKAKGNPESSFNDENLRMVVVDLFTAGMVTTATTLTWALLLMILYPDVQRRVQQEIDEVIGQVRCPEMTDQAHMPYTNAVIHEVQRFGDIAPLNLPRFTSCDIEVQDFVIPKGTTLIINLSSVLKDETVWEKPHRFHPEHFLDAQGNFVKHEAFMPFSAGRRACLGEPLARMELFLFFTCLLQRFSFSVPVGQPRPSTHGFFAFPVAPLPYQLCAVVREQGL
Format: in vitro ADME. On the procedure:
as §1, §2, §3, §4, §5, §6

Take `CC1=CC(=O)c2c(O)cccc2C1=O` [plumbagin, 5-hydroxy-2-methyl-1,4-naphthoquinone]: on CYP2B1, it took 5.86 µM to reach half-maximal inhibition (IC50), the Ki is 9.93 µM and the Type of inhibition entry is recorded as “competitive”. For the same compound, on CYP2D1, the half-maximal inhibitory concentration (IC50) was determined as 6.17 µM, the Ki was determined as 9.49 µM, the Type of inhibition result is recorded as “mixed-type” and the α worked out at 0.69. At CYP2D1, this compound registered a αKi of 13.79 µM.

As usually defined, the IC50 is the midpoint of a concentration-inhibition curve. What is called Ki is the dissociation constant of the complex between target and ligand, obtained from inhibition or displacement.
